Consider eight compounds from PubChem BioAssay (NCI).

Holding throughout (experiment): NCI anticancer screen, dose series, 48 h
Assay [1] relates to A549 NSCLC.
In assay [2] the test system is CAKI-1 renal.
Assay [3] has as its system HCT-15 colon.
Assay [4] deals with M14 melanoma.
The subject of assay [5] is MDA-MB-435.
The subject of assay [6] is RPMI-8226 leukemia.
Assay [7] relates to SF-295 CNS.
For assay [8], the system named is SN12C renal.
The test system of assay [9] is SNB-19 CNS.
Assay [10] relates to UO-31 renal.

“And” between values parts separate entries of the source, which are not always exact repeats. Equal entries are not always repeated.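 48-hour exposure; five concentrations; linearly interpolated endpoints. GI50 is the concentration that inhibits growth by half. At the TGI there is no net growth.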 Some results are limits rather than exact numbers.

Regarding `O=C(Cc1ccc(/C=C/C(=O)c2ncc[nH]2)cc1)Nc1cc(F)c(F)c(F)c1`, the GI50 was 4.13 µM in assay [1]; 3680 nM in assay [2]; 2390 nM in [3]; 4060 nM in [4]; 4250 nM in assay [5]; 665 nM in [6]. In addition, the GI50 was 6.82 µM in assay [7], 4.27 µM in assay [8], 4.07 µM in assay [9] and 3360 nM in assay [10]. Besides, the TGI in assay [1] was determined as 17.8 µM; in assay [2], 7.05 µM; in assay [3] it was 8.25 µM; in [4], 8.36 µM; in assay [5] it was 12.8 µM; in [6] it was 1.79 µM. The TGI in assay [7] worked out at 20.5 µM; in [8], 11.1 µM; in assay [9], 9.93 µM; in assay [10] it was 6.56 µM.
For `CCN(CC)CCCC(CNc1ccnc2cc(Cl)ccc12)c1ccc(Cl)cc1` (stereo not given), the GI50 is 2.06 µM and 1.63 µM in assay [1]; 1480 nM and 547 nM in assay [2]; 535 nM and 984 nM in [3]; 227 nM and 203 nM in assay [4]; 1190 nM and 204 nM in assay [5]; 1360 nM and 590 nM in assay [6]. Also, the GI50 was 1.79 µM and 1.35 µM in assay [7]; 1.96 µM and 1.92 µM in assay [8]; 1.9 µM and 2.73 µM in assay [9]; 891 nM and 974 nM in [10]. Besides, the TGI in [1] is 4.2 µM and 3.42 µM; in [2], 3.2 µM and 1.91 µM; in [3], 2.1 µM and 2.62 µM; in assay [4], 0.612 µM and 0.405 µM; in assay [5], 2.55 µM and 0.462 µM; in assay [6], 4.79 µM and 2.69 µM. Also, the TGI in assay [7] was 3.54 µM and 2.76 µM; in [8], 4.78 µM and 4.3 µM; in assay [9], 4.17 µM and 6.9 µM; in assay [10], 2.24 µM and 2.31 µM.
Regarding `CCN(CC)c1ccc2c(c1)OC(N)=C(C#N)C2c1cc(OC)c2c(c1)OCO2` (stereo not given), the GI50 was 0.0322 µM in assay [1]; 108 nM in assay [2]; 34.9 nM in [3]; 13.8 nM in [4]; under 10.8 nM in assay [5]; 47.4 nM in [6]. Further, the GI50 in [7] was under 0.0157 µM; in assay [8] it was 0.0537 µM; in [9] it was 0.0418 µM; in assay [10], 403 nM. Besides, the TGI in assay [1] is over 100 µM; in assay [2], 59.1 µM; in [3], 3.93 µM; in [4] it was 0.0459 µM; in [5], 0.0276 µM; in assay [6] it was 2.51 µM. Moreover, the TGI in assay [7] is 2.68 µM; in assay [8], 6.09 µM; in [9], 51 µM; in [10], over 43.3 µM.
With `COc1cc(C#CC(=O)OC/C=C/c2ccc3c(c2)OCO3)cc(OC)c1OC`, the TGI is over 100 µM in [1]; 57 µM in assay [2]; 78.8 µM in assay [3]; 79.8 µM in [4]; 38.1 µM in [5]; 51.8 µM in [6]. For the same compound, the TGI in assay [7] is over 100 µM; in assay [8], over 100 µM; in [9], over 100 µM; in [10] it was 37 µM.
With `O=C(CNc1ccc(Cl)cc1)Nc1ccc(-c2nc3ccccc3s2)cc1`, the GI50 was 8.1 µM in assay [1]; 6800 nM in assay [2]; 1840 nM in assay [3]; 2100 nM in assay [4]; 3910 nM in assay [5]; 2820 nM in assay [6]. For the same compound, the GI50 in assay [7] is 14.1 µM; in assay [8], 3.07 µM; in assay [9] it was 6.03 µM; in [10] it was 4030 nM. For the same compound, the TGI in [1] was 27.4 µM; in [2], 20 µM; in [3] it was 5.32 µM; in assay [4], 5.15 µM; in [5], 16.6 µM; in assay [6], 16 µM. In addition, the TGI was 28.8 µM in assay [7], 10.5 µM in assay [8], 16.6 µM in [9] and 15.4 µM in [10].
Take `COc1ccc2c(c1)CCCC(Br)C2=O` (stereo not given): the TGI was over 43.6 µM in assay [1]; 9.45 µM in assay [2]; 12.7 µM in assay [3]; 16.5 µM in assay [4]; 5.99 µM in assay [5]; 5.5 µM in assay [6]. Further, the TGI worked out at 17.2 µM in [7], 9.13 µM in [8], 22.3 µM in assay [9] and 4.71 µM in [10].
As for `CCOC(=O)CCCn1c(SC)nc2[nH]cc(-c3ccccc3)c2c1=O`, the GI50 in assay [1] was 12.2 µM; in assay [2], 15800 nM; in assay [3] it was 27100 nM; in assay [4], 15400 nM; in [5] it was 19400 nM; in [6], 14600 nM. The GI50 in [7] was 11.6 µM; in assay [8], 17 µM; in assay [9], 21 µM; in assay [10], 19900 nM. Further, the TGI is 36.2 µM in assay [1]; 45.1 µM in [2]; over 100 µM in [3]; 31.6 µM in assay [4]; 42.4 µM in assay [5]; 36.3 µM in [6]. The TGI was 34.2 µM in [7], 49.9 µM in [8], over 100 µM in [9] and 57.9 µM in [10].
As for `CC(C)CCN1c2nc(Nc3cc(F)c(O)c(F)c3)ncc2N(C)C(=O)C1C` (stereo not given), the GI50 is 4.88 µM in assay [1]; 2840 nM in assay [2]; 3500 nM in assay [3]; 4590 nM in [4]; 1290 nM in [5]; 2820 nM in assay [6]. Besides, the GI50 was 11.3 µM in assay [7], 4.9 µM in assay [8], 6.35 µM in [9] and 939 nM in assay [10]. Moreover, the TGI in [1] was 37.6 µM; in [2] it was over 77.1 µM; in [3], over 49.1 µM; in [4] it was 26.1 µM; in assay [5], 55.8 µM; in [6], 11.5 µM. The TGI in assay [7] was over 100 µM; in [8], over 91.6 µM; in [9], over 100 µM; in assay [10], 16.8 µM.
